# Experimental data: the supplement of paper PMC10307832
# Assays:
# Assay in all cases: relative viability (nuclei count vs DMSO), 5 days (fraction); higher = more cells survive
# [1] = compound: CC1CC(=O)N(C2=CN=C(N=C2N1C3CCCC3)NC4=C(C=C(C=C4)C(=O)NC5CCN(CC5)C)OC)C [NPK76-II-72-1] + Cc1cc(Nc2cc(N3CCN(C)CC3)nc(Sc3ccc(NC(=O)C4CC4)cc3)n2)n[nH]1 [Tozasertib] (partner 0.1 µM)
# How it was run: (§1)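 Nuclei were stained with Hoechst during a one-step fixation (final 0.05% Triton X-100, 1% formaldehyde, 1 ug/ml Hoechst) carried out 5 days after dosing, then counted on 4× images. The cells, lung cancer lines in 1536-well plates, had been dosed by pin tool the day after seeding with one drug alone or a fixed anchor-drug dose plus five library-drug doses (not always all listed) in √10 steps. Relative viability is the nuclei count in treated wells divided by that in vehicle wells, and each value is the median of duplicate plates.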
# [2] = compound: CC1CC(=O)N(C2=CN=C(N=C2N1C3CCCC3)NC4=C(C=C(C=C4)C(=O)NC5CCN(CC5)C)OC)C [NPK76-II-72-1] + CS(=O)(=O)N1CCN(Cc2cc3nc(-c4cccc5[nH]ncc45)nc(N4CCOCC4)c3s2)CC1 [Pictilisib] (partner 1 µM)
# How it was run: as §1
# [3] = compound: CC1CC(=O)N(C2=CN=C(N=C2N1C3CCCC3)NC4=C(C=C(C=C4)C(=O)NC5CCN(CC5)C)OC)C [NPK76-II-72-1] + C[C@]1(O)C[C@@H](c2nc(-c3ccc4ccc(-c5ccccc5)nc4c3)c3c(N)nccn32)C1 [Linsitinib] (partner 1 µM)
# How it was run: as §1
# [4] = compound: CC1CC(=O)N(C2=CN=C(N=C2N1C3CCCC3)NC4=C(C=C(C=C4)C(=O)NC5CCN(CC5)C)OC)C [NPK76-II-72-1] + COc1cccc2cc(-c3nc([C@H]4CC[C@H](C(=O)O)CC4)n4ncnc(N)c34)[nH]c12 [OSI-027] (partner 0.5 µM)
# How it was run: as §1
Cell Line,relative viability ([1]; first compound 0.01 µM),relative viability ([1]; first compound 0.03162 µM),relative viability ([1]; first compound 0.1 µM),relative viability ([1]; first compound 0.3162 µM),relative viability ([1]; first compound 1 µM),relative viability ([2]; first compound 0.01 µM),relative viability ([2]; first compound 0.03162 µM),relative viability ([2]; first compound 0.1 µM),relative viability ([2]; first compound 0.3162 µM),relative viability ([2]; first compound 1 µM),relative viability ([3]; first compound 0.01 µM),relative viability ([3]; first compound 0.03162 µM),relative viability ([3]; first compound 0.1 µM),relative viability ([3]; first compound 0.3162 µM),relative viability ([3]; first compound 1 µM),relative viability ([4]; first compound 0.01 µM),relative viability ([4]; first compound 0.03162 µM),relative viability ([4]; first compound 0.1 µM),relative viability ([4]; first compound 0.3162 µM),relative viability ([4]; first compound 1 µM)
LU99A,0.318,0.309,0.309,0.271,0.283,0.371,0.32,0.411,0.292,0.334,0.57,0.522,0.584,0.479,0.518,0.309,0.285,0.241,0.278,0.299
LXF-289,0.172,0.214,0.181,0.165,0.2,0.791,0.819,0.796,0.772,0.776,0.931,0.977,0.921,0.925,1,0.704,0.849,0.684,0.763,0.783
NCI-H23,0.367,0.386,0.35,0.379,0.378,0.389,0.48,–,0.503,0.534,0.546,0.701,–,0.592,0.552,0.649,0.649,0.568,0.585,0.71
NCI-H322M,0.486,0.509,0.496,0.44,0.534,0.45,0.573,0.513,0.576,0.513,0.853,1.1,0.805,0.961,0.976,0.558,0.593,0.534,0.56,0.672
NCI-H358,0.108,0.11,0.0907,–,0.115,0.352,0.364,0.334,0.3,0.332,0.742,0.773,0.854,0.412,0.784,0.703,0.812,1,–,0.916
NCI-H441,0.825,0.659,0.635,0.619,0.721,0.419,0.507,0.605,0.471,0.425,0.479,0.696,0.492,0.265,0.65,0.596,0.73,0.561,0.579,0.788
NCI-H460,0.524,0.529,0.673,0.463,0.597,0.238,0.297,0.367,0.34,0.365,0.721,0.787,0.842,0.762,0.895,0.706,0.79,0.75,0.628,0.775
NCI-H520,0.36,0.437,0.429,0.423,0.487,0.234,0.267,0.374,0.267,0.291,0.753,0.83,0.804,0.922,1.07,0.358,0.265,0.238,0.257,0.305
NCI-H596,0.868,1.07,0.832,0.921,1.04,0.401,0.338,0.396,0.368,0.429,1.02,1.14,1.06,1.13,1.09,0.873,0.666,0.748,0.691,0.67
NCI-H647,0.315,0.283,0.423,0.257,0.325,0.38,0.427,0.401,0.406,0.466,1.2,1.28,–,1.07,1.14,0.618,0.626,0.526,0.578,0.627
NCI-H650,0.738,0.778,0.713,0.661,0.796,0.804,0.88,0.71,–,1.21,0.941,1.02,0.652,–,0.845,0.512,0.565,0.515,0.49,0.623
NCI-H661,0.351,0.351,0.35,0.386,0.36,0.416,0.422,0.422,–,0.508,0.536,0.557,0.546,0.525,0.519,0.667,0.772,0.746,0.588,0.742
NCI-H727,0.641,0.616,0.545,0.539,0.649,0.396,0.428,0.385,0.418,0.319,0.233,0.259,0.27,0.287,0.331,0.496,0.637,0.602,0.564,0.668
NCI-H838,0.27,0.248,0.278,0.274,0.288,0.37,0.481,0.47,0.435,0.432,0.935,1.05,1.11,1.01,1.03,0.323,0.363,0.385,0.395,0.442
NCI-H1355,0.534,0.582,0.605,0.543,0.609,0.409,0.391,0.432,0.434,0.442,0.844,0.837,0.809,0.792,0.848,0.332,0.421,0.397,0.384,0.489
NCI-H1395,0.726,0.822,0.72,0.767,0.759,0.615,0.645,0.627,0.632,0.628,1.08,1.17,1.22,1.13,1.22,0.633,0.617,0.677,0.62,0.695
